# According to patent publication US10517889B2, “Modulators of SMAD7 expression” (Ionis Pharmaceuticals, Inc., priority 2017, dated 2019):
# Strand notation (5' to 3'): a small letter for the sugar, then the base; units joined by * are phosphorothioate-linked, units joined directly phosphodiester-linked; [ ] holds rarer units or linkages, { } end groups; capitals alone tell only the bases. e = 2'-O-(2-methoxyethyl) (MOE); [5mC] = 5-methylcytosine; d = 2'-deoxy (DNA)
# Test system: human SMAD7 mRNA
# Assay: Antisense inhibition of human SMAD7 mRNA expression in Hep3B cells by 5-10-5 MOE gapmers, single concentration, electroporation, RT-PCR (Example 1, Study 1 and 2)
# Format: cell-based
# How it was run: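 Hep3B cells (20,000/well) electroporated with 5-10-5 MOE gapmer at 5,000 nM or 15,000 nM for approximately 24 h. SMAD7 mRNA quantified by real-time PCR with primer probe set RTS5062 and normalized to RIBOGREEN total RNA. Values are percent inhibition relative to untreated controls.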
# [1] = electroporation with 15,000 nM antisense oligonucleotide (Study 2), 5-10-5 MOE gapmers targeting SEQ ID NO: 1 and 2
# [2] = electroporation, 15,000 nM antisense oligonucleotide (Study 2), 5-10-5 MOE gapmers targeting SEQ ID NO: 1 and 2
# [3] = electroporation, 15,000 nM, approximately 24 hours, relative to untreated control cells, gapmers targeting SEQ ID NO: 1 and 2
# [4] = Study 2, electroporation with 15,000 nM antisense oligonucleotide, 5-10-5 MOE gapmers targeting SEQ ID NO: 1 and 2
# [5] = electroporation, 5,000 nM, approximately 24 hours, relative to untreated control cells, gapmers targeting SEQ ID NO: 1 and 2
substance,measurement,setting,value
771465 (antisense eA*eT*e[5mC]*e[5mC]*eA*dG*dA*dG*dA*dG*dG*dG*d[5mC]*dT*d[5mC]*e[5mC]*eT*eG*eG*eA) [compound 771465],% Inhibition of SMAD7 mRNA,[1],16%
same,% inhibition of SMAD7 mRNA expression,[2],0%
771864 (antisense eA*eG*eA*e[5mC]*eA*dA*dA*dG*dA*dT*d[5mC]*dA*d[5mC]*dA*dG*eA*eT*e[5mC]*eA*e[5mC]) [compound 771864],% Inhibition of SMAD7 mRNA,[1],27%
same,% inhibition of SMAD7 mRNA expression,[2],0%
771435 (e[5mC]*eA*eG*e[5mC]*eT*dG*d[5mC]*d[5mC]*dG*d[5mC]*dT*d[5mC]*d[5mC]*dT*dT*e[5mC]*eA*eG*eT*eT; antisense) [compound 771435],% inhibition of SMAD7 mRNA expression,[2],29%
771565 (antisense e[5mC]*eT*eG*e[5mC]*e[5mC]*dG*d[5mC]*dT*d[5mC]*d[5mC]*dT*dG*d[5mC]*dA*d[5mC]*eA*e[5mC]*eG*e[5mC]*eG) [compound 771565],% inhibition of SMAD7 mRNA expression,[3],55%
771781 (antisense eA*eA*eA*eA*eA*dA*dA*dG*d[5mC]*d[5mC]*d[5mC]*dA*d[5mC]*d[5mC]*d[5mC]*eA*eT*e[5mC]*eG*eG) [compound 771781],% inhibition of SMAD7 mRNA expression,[3],10%
771881 (antisense eA*eT*eT*eT*eT*d[5mC]*d[5mC]*dA*dA*dA*dA*dG*dG*dA*d[5mC]*eA*eA*eA*eA*e[5mC]) [compound 771881],% inhibition of SMAD7 mRNA expression,[2],0%
771803 (antisense eA*eT*eG*eG*eA*dT*dA*d[5mC]*dT*dG*dA*d[5mC]*dT*d[5mC]*dA*eA*eG*eG*eA*e[5mC]) [compound 771803],% Inhibition,[4],39%
same,% inhibition of SMAD7 mRNA expression,[5],22%
771811 (antisense eT*eG*e[5mC]*e[5mC]*eT*d[5mC]*dA*dT*dT*d[5mC]*dT*dT*dT*d[5mC]*d[5mC]*eA*eG*eG*eA*e[5mC]) [compound 771811],% Inhibition,[4],50%
same,% inhibition of SMAD7 mRNA expression,[5],48%
771656 (antisense eG*eT*eT*eA*eA*dA*dG*dT*d[5mC]*dT*dA*dA*dA*d[5mC]*dA*eT*eG*e[5mC]*eT*e[5mC]) [compound 771656],% Inhibition of SMAD7 mRNA,[1],35%
same,% inhibition of SMAD7 mRNA expression,[1],0%
771394 (antisense e[5mC]*eG*e[5mC]*eT*e[5mC]*d[5mC]*dG*dG*d[5mC]*dT*dG*d[5mC]*d[5mC]*d[5mC]*d[5mC]*eA*e[5mC]*e[5mC]*e[5mC]*e[5mC]) [compound 771394],% Inhibition,[4],10%
771436 (eG*eA*eG*e[5mC]*eA*dG*d[5mC]*dA*dG*d[5mC]*dT*d[5mC]*d[5mC]*dA*dG*e[5mC]*eT*eG*e[5mC]*e[5mC]; antisense) [compound 771436],% Inhibition,[4],27%
same,% inhibition of SMAD7 mRNA expression,[5],50%
771626 (antisense eG*e[5mC]*eA*eG*eA*dG*d[5mC]*dT*dT*dA*dA*d[5mC]*dA*d[5mC]*dA*e[5mC]*eA*eG*eG*eA) [compound 771626],% inhibition of SMAD7 mRNA expression,[1],35%
771537 (antisense e[5mC]*eA*eA*eA*eG*dA*dG*d[5mC]*dG*dA*dA*dA*d[5mC]*dA*dA*eA*eA*e[5mC]*eA*eG) [compound 771537],% inhibition of SMAD7 mRNA expression,[2],16%
771672 (antisense eT*eT*eT*eT*eT*dT*d[5mC]*dA*dG*dG*dA*dG*dT*d[5mC]*d[5mC]*eT*eT*eT*e[5mC]*eT) [compound 771672],% Inhibition of SMAD7 mRNA,[1],30%
same,% inhibition of SMAD7 mRNA expression,[1],2%
771516 (antisense eG*eA*eG*eG*eA*dA*dA*dA*dT*dA*dT*dT*dA*dG*d[5mC]*eA*eG*e[5mC]*eA*eA) [compound 771516],% inhibition of SMAD7 mRNA expression,[4],8%
771800 (antisense eG*eA*e[5mC]*eA*eG*d[5mC]*dA*dG*dA*d[5mC]*dA*dG*dG*d[5mC]*dA*eA*eA*eA*eT*eG) [compound 771800],% Inhibition of SMAD7 mRNA,[1],32%
same,% inhibition of SMAD7 mRNA expression,[2],12%
771946 (antisense eG*eG*eG*e[5mC]*eT*dA*d[5mC]*d[5mC]*dT*dT*dA*dA*d[5mC]*dA*dA*eA*eG*e[5mC]*eT*eT) [compound 771946],% inhibition of SMAD7 mRNA expression,[2],47%
771876 (antisense e[5mC]*eG*eA*eG*e[5mC]*dT*d[5mC]*d[5mC]*d[5mC]*dT*d[5mC]*d[5mC]*d[5mC]*dT*dG*eG*e[5mC]*e[5mC]*e[5mC]*e[5mC]) [compound 771876],% Inhibition,[4],0%
771665 (antisense eA*eA*eT*eG*e[5mC]*dT*dA*dA*dA*dT*dT*dT*d[5mC]*d[5mC]*dA*eA*eT*eG*eA*eG) [compound 771665],% inhibition of SMAD7 mRNA expression,[1],24%
771396 (antisense e[5mC]*eT*eG*e[5mC]*eG*d[5mC]*dT*d[5mC]*d[5mC]*dG*dG*d[5mC]*dT*dG*d[5mC]*e[5mC]*e[5mC]*e[5mC]*eA*e[5mC]) [compound 771396],% inhibition of SMAD7 mRNA expression,[2],48%
771859 (antisense e[5mC]*e[5mC]*eA*eG*eA*dA*dA*dA*dT*dG*d[5mC]*dA*dG*dA*d[5mC]*eA*eG*e[5mC]*eT*eA) [compound 771859],% Inhibition,[4],42%
same,% inhibition of SMAD7 mRNA expression,[5],43%
771594 (antisense eG*eG*e[5mC]*e[5mC]*eA*d[5mC]*dT*dA*dG*d[5mC]*dA*dG*dG*d[5mC]*dT*e[5mC]*eG*e[5mC]*eT*eG) [compound 771594],% inhibition of SMAD7 mRNA expression,[2],37%
771518 (antisense eA*eA*eG*e[5mC]*eA*d[5mC]*dT*d[5mC]*dA*dG*dG*dA*dG*dG*dA*eA*eA*eA*eT*eA) [compound 771518],% inhibition of SMAD7 mRNA expression,[4],4%
771633 (antisense eG*eA*e[5mC]*e[5mC]*eA*dA*dA*dT*d[5mC]*d[5mC]*dT*dT*d[5mC]*dT*dT*eG*eG*eA*eG*eG) [compound 771633],% inhibition of SMAD7 mRNA expression,[1],40%
771933 (antisense eA*eT*e[5mC]*eG*eA*dG*dG*dT*dG*d[5mC]*d[5mC]*d[5mC]*d[5mC]*d[5mC]*dA*eT*eG*e[5mC]*e[5mC]*eA) [compound 771933],% inhibition of SMAD7 mRNA expression,[3],31%
771758 (antisense eA*eT*eT*eA*e[5mC]*d[5mC]*dA*dG*dT*d[5mC]*d[5mC]*d[5mC]*d[5mC]*d[5mC]*dA*eT*eT*eA*e[5mC]*eG) [compound 771758],% Inhibition,[4],0%
771623 (antisense eT*eA*eA*e[5mC]*eA*d[5mC]*dA*d[5mC]*dA*dG*dG*dA*dT*dG*dG*eG*eA*eG*e[5mC]*eA) [compound 771623],% inhibition of SMAD7 mRNA expression,[4],51%
771344 (antisense eA*eT*e[5mC]*eT*eG*dG*dA*d[5mC]*dA*dG*dT*d[5mC]*dA*dG*dT*eT*eG*eG*eT*eT) [compound 771344],% inhibition of SMAD7 mRNA expression,"electroporation, 15,000 nM, approximately 24 hours, gapmers targeting SEQ ID NO: 3 and 4",17%
771731 (antisense eA*eA*eA*eA*e[5mC]*dT*dT*dT*dG*dT*dG*d[5mC]*d[5mC]*dT*dG*eT*eT*eT*e[5mC]*eA) [compound 771731],% Inhibition,[4],54%
same,% inhibition of SMAD7 mRNA expression,[5],44%
771673 (antisense eA*eG*eG*eT*eT*dT*dT*dT*dT*dT*dT*d[5mC]*dA*dG*dG*eA*eG*eT*e[5mC]*e[5mC]) [compound 771673],% inhibition of SMAD7 mRNA expression,[1],44%
771597 (antisense eG*eA*eA*eT*eA*dA*dG*dA*d[5mC]*dA*dA*dG*dG*dA*dT*eG*eA*eA*eA*eA) [compound 771597],% inhibition of SMAD7 mRNA expression,[3],0%
771911 (antisense eA*eT*eG*eG*eT*d[5mC]*d[5mC]*dA*dG*d[5mC]*dA*dG*dA*dG*d[5mC]*eA*eG*eA*eA*eG) [compound 771911],% Inhibition,[4],20%
771884 (antisense e[5mC]*eT*eG*e[5mC]*e[5mC]*dA*d[5mC]*d[5mC]*d[5mC]*dT*dG*dA*dG*dA*dG*eT*eG*eT*eA*eG) [compound 771884],% Inhibition,[4],3%
771385 (antisense e[5mC]*eA*eG*eT*e[5mC]*dT*dG*d[5mC]*dT*dG*dT*dG*dG*dA*dT*eT*eT*eG*eA*eA) [compound 771385],% Inhibition,[4],25%
771640 (antisense eG*eG*eT*eG*eT*d[5mC]*dA*dG*d[5mC]*d[5mC]*dT*dA*dG*dG*dA*eT*eG*eG*eT*eA) [compound 771640],% Inhibition of SMAD7 mRNA,[1],35%
same,% inhibition of SMAD7 mRNA expression,[1],0%
771395 (antisense eG*e[5mC]*eG*e[5mC]*eT*d[5mC]*d[5mC]*dG*dG*d[5mC]*dT*dG*d[5mC]*d[5mC]*d[5mC]*e[5mC]*eA*e[5mC]*e[5mC]*e[5mC]) [compound 771395],% Inhibition of SMAD7 mRNA,[1],34%
same,% inhibition of SMAD7 mRNA expression,[2],0%
771412 (eT*e[5mC]*eG*e[5mC]*e[5mC]*d[5mC]*d[5mC]*dT*dT*d[5mC]*dT*d[5mC]*d[5mC]*d[5mC]*d[5mC]*eG*e[5mC]*eA*eG*e[5mC]; antisense) [compound 771412],% Inhibition,[4],38%
same,% inhibition of SMAD7 mRNA expression,[5],52%
771751 (antisense eT*eG*eG*e[5mC]*e[5mC]*dA*dT*dG*d[5mC]*dT*dG*dG*d[5mC]*dA*dA*eA*eT*eA*eG*eG) [compound 771751],% Inhibition,[4],25%
771480 (antisense eA*eG*e[5mC]*e[5mC]*eT*dT*dG*dA*dT*dG*dG*dA*dG*dA*dA*eA*e[5mC]*e[5mC]*eG*eG) [compound 771480],% inhibition of SMAD7 mRNA expression,[4],46%
771669 (antisense eT*eT*eT*e[5mC]*eT*d[5mC]*dT*d[5mC]*dT*d[5mC]*dA*dA*dA*dG*d[5mC]*eA*e[5mC]*eT*eA*e[5mC]) [compound 771669],% inhibition of SMAD7 mRNA expression,[3],55%
771936 (antisense eT*eG*eT*eT*eT*d[5mC]*dT*dG*dT*dG*dT*dG*d[5mC]*dA*d[5mC]*eA*eT*eA*e[5mC]*eG) [compound 771936],% Inhibition of SMAD7 mRNA,[1],32%
same,% inhibition of SMAD7 mRNA expression,[2],36%
771829 (antisense eT*eG*eT*eG*e[5mC]*d[5mC]*dT*d[5mC]*dA*dG*d[5mC]*dA*dG*dT*dT*eA*eA*eT*eA*eA) [compound 771829],% inhibition of SMAD7 mRNA expression,[3],14%
